# Experimental data taken from US6734337B2, “Acetyl-coenzyme A carboxylase 2 as a target in the regulation of fat burning, fat accumulation, energy homeostasis and insulin action” (Research Development Foundation, priority 2000, dated 2004).
# Columns and labels:
# [1] = system: ACC; details: mice treated with fatty acid synthase inhibitors; cited from earlier work
# [2] = system: soleus muscles of wild-type (Acc2+/+) mice; assay: [3H]palmitate oxidation in isolated soleus muscle of wild-type mice; format: cell-based, mouse; details: isoproterenol 3 mM, 30 min, 37° C.
# Experimental: Where indicated, insulin (10 nM) or isoproterenol (3 mM) was added, and the vials were incubated at 37° C. under a humidified O2/CO2 (95/5%) atmosphere for 30 min. At the end of the incubation period, the [^3H]2O was separated from the labeled substrate and counted. To provide further evidence for the role of ACC2-synthesized malonyl-CoA as the regulator of fatty acid oxidation, fatty acid oxidation was investigated in the mouse soleus muscle, a […] muscle tissue responsive to hormonal regulation ([…]., Gamble, J., Patel, A., Kemp, […]., and Ruderman, W. B., J Biol Chem., 272:13255-13261 1997; Alam, N., and E. D. Saggerson. Biochem J., 334:233-41, 1998; […]., and […]. Proc Natl Acad Sci. USA 92, 4011-4015, 1995; […]., and […] Biol Chem. 272, 10669-10677, 1997; -Ha, J., J. K. Lee, […], and K.-H. Him. Proc Natl Acad Sci USA. 93:11466-11470, 1996; Rasmussen, B. B. and Wolfe, R. R., Ann. Rev. Natr. 19:463, 1999; and, Bressler, R. and […] Biol Chem. 236:1643-1651, 1961). […] Insulin is known to activate both ACC1 and ACC2 and, thereby, to induce fatty acid synthesis and inhibit fatty acid oxidation, respectively. […] Faseb J. 3:2250-2256, 1989; Thampy, K. G., and […]. Biol. Chem. 263, 6454-6458, 1988; […]., and […]. Biol. Chem. 265, 6330-6338, 1990; Mohamed, A. H., W. Y. Huang, W. Huang, K. V. Venkatachalam, and […] Biol Chem. 269:6859-6865. […]
# [3] = system: soleus muscles of Acc2-/- mutant mice; assay: [3H]palmitate oxidation in isolated soleus muscle of Acc2-/- mutant mice; format: cell-based, mouse; details: 30 min, 37° C.
# Experimental: Where indicated, insulin (10 nM) or isoproterenol (3 mM) was added, and the vials were incubated at 37° C. under a humidified O2/CO2 (95/5%) atmosphere for 30 min. At the end of the incubation period, the [^3H]2O was separated from the labeled substrate and counted. To provide further evidence for the role of ACC2-synthesized malonyl-CoA as the regulator of fatty acid oxidation, fatty acid oxidation was investigated in the mouse soleus muscle, a […] muscle tissue responsive to hormonal regulation ([…]., Gamble, J., Patel, A., Kemp, […]., and Ruderman, W. B., J Biol Chem., 272:13255-13261 1997; Alam, N., and E. D. Saggerson. Biochem J., 334:233-41, 1998; […]., and […]. Proc Natl Acad Sci. USA 92, 4011-4015, 1995; […]., and […] Biol Chem. 272, 10669-10677, 1997; -Ha, J., J. K. Lee, […], and K.-H. Him. Proc Natl Acad Sci USA. 93:11466-11470, 1996; Rasmussen, B. B. and Wolfe, R. R., Ann. Rev. Natr. 19:463, 1999; and, Bressler, R. and […] Biol Chem. 236:1643-1651, 1961). […] Insulin is known to activate both ACC1 and ACC2 and, thereby, to induce fatty acid synthesis and inhibit fatty acid oxidation, respectively. […] Faseb J. 3:2250-2256, 1989; Thampy, K. G., and […]. Biol. Chem. 263, 6454-6458, 1988; […]., and […]. Biol. Chem. 265, 6330-6338, 1990; Mohamed, A. H., W. Y. Huang, W. Huang, K. V. Venkatachalam, and […] Biol Chem. 269:6859-6865. 1994; and, Hardie, D. G. Prog Lipid Res. 28:117-146, 1989). The role of ACC2 in the regulation of mitochondrial oxidation of fatty acids was further confirmed by using isoproterenol, an analog of glucagon, which produces effects opposite of those of insulin. Adding isoproterenol to wild-type soleus muscle increased palmitate oxidation by 50% (FIG. 4), raising it to nearly the same level as that found in the mutant muscle cells. […] This additional increase may be due to factors independent of malonyl-CoA ([…]. Lopez-[…]. Bai, X. Luo, and M. E. Pape. Faseb J. 3:2250-2256, 1989).
compound,measurement,setting,value
CCCCCCCCCCCCCCOc1ccc(C(=O)O)o1 [5-(tetradeculoxy)-2 furoic acid],effect on food uptake,[1],increases food uptake
CC(C)NCC(O)c1ccc(O)c(O)c1 (centres unmarked) [isoproterenol],increase of fatty acid (palmitate) oxidation,[2],50%
same,effect on fatty acid oxidation,[3]; isoproterenol 3 mM,further increased
same,effect on fatty acid oxidation,"[3]; isoproterenol 3 mM, listed as Isoproterenol",little effect
insulin,effect on fatty acid oxidation,[3]; insulin 10 nM,did not affect
